According to paper PMC9721025, “Pharmacokinetic study of the main components of Tanreqing capsules and Tanreqing injections in beagles by liquid chromatography–tandem mass spectrometry” (Chinese Medicine, 2022):
Read-outs that look alike come from different tables or passages of the source.

Experiments:
[1] = Pharmacokinetics in beagles, single-dose regimen of TRQI (i.v.) or TRQC (oral), plasma LC-MS/MS; format: in vivo, beagle; conditions: for AUC(0-t) / Cmax / Tmax / half-life: beagle, dog, plasma; for AUC(0-t): read-out: AUC0–24 h; for Cmax / Tmax / half-life: mean of six beagles
Experimental: (§1) 100 μL plasma sample was drawn and transferred to 1.5 mL centrifuge tube prior to 300 μL protein precipitant (3:1 [v/v] methanol/acetonitrile, containing 0.1% formic acid and 100 ng/mL IS) was added, and then the sample was vortex-mixed for 3 min. The mixture was centrifuged at 20,000 ×g for 10 min, and 100 μL supernatant was transferred to the injection vial and analyzed directly by LC–MS/MS.
(§2) This study was carried out in six beagles (three males and three females, 9.0–12.0 kg each), that were purchased from Junda Pet Hospital (Shanghai, China). This experimental protocol was approved by the Experimental Animal Ethics Committee of the Naval Military Medical University (Shanghai, China).
The six healthy beagles were divided into two groups: beagles 1–3 were all male and were assigned to the first group, and beagles 4–6 were all females and assigned to the second group. The two-cycle, crossover study was designed with a 7-day wash out period. For the single-administration process, the dogs in the first group were injected intravenously with 0.5 mL/kg TRQI (one-third of the normal daily dose), and blood samples were collected at 0, 5, 10, 15, 20, 30, and 45 min and then at 1, 2, 4, 6, 8, 12, and 24 h (a total of 14 time points) after injection. For each blood sample, 1 mL of blood was collected from the forelimb vein in heparin-treated tubes. The dogs in the second group were orally administrated 0.09 g/kg TRQC (one-third of the normal daily dose, and blood samples were collected in the same manner at 0, 10, 20, and 40 min and then at 1, 1.5, 2, 2.5, 3, 4, 6, 8, 12, and 24 h (a total of 14 time points). All blood samples were centrifuged at 4000 × g for 5 min, and each supernatant was collected and aliquoted. After a 7-day wash out period, the dogs in each group were administrated the other Tanreqing formulation in a crossover design, and blood samples were collected and processed in the same way.
(§3) All data obtained were analyzed using Drug and Statistics (DAS) 2.0 software (Chinese Society of Pharmacology), and a non-compartment analysis was used to calculate plasma pharmacokinetic parameters. The principal components of TRQI and TRQC were compared with an analysis of variance (ANOVA) and/or a two-tailed student-t test.

[2] = Tanreqing injection, cited from earlier work
[3] = Stability of analytes in dog plasma (QC samples); format: in vitro ADME
Experimental: The stock solutions of all analytes were further mixed and diluted with methanol/water (10:90, v/v) solution to prepare the working solutions. […] The QC samples were stored in a refrigerator at – 80 °C until retrieval (see Additional file 1). The stability, which includes short-term stability (6 h at room temperature), long-term stability (− 80 °C for 30 days in the refrigerator), and freeze–thaw stability (three cycles from − 80 °C to room temperature), were assessed using QC samples at three concentration levels in three replicates. […] Similarly, there were no obvious effects on the analysis results of the samples with respect to short-term stability or long-term storage.

[4] = Pharmacokinetics in beagles, multiple-dose regimen (once per day for 7 days) of TRQI or TRQC, plasma LC-MS/MS; format: in vivo; conditions: beagle, dog
Experimental: as §1, §2
After the end of the single-dose experiment, the dogs in group one were given 0.5 mL/kg injection of TRQI once per day for 7 days following the wash out period, and the dogs in group two were given 0.09 g/kg TRQC once per day for 7 days. After the seventh administration, blood samples were collected at 0, 10, 20, and 40 min and then at 1, 1.5, 2, 2.5, 3, 4, 6, 8, 12, and 24 h (a total of 14 time points) and were processed as described in “Single-dose regimen” section. The resulting plasma samples were used to determine the steady-state plasma concentration of TRQI and TRQC. A crossover study was again carried out in both groups, as described in “Single-dose regimen” section, after a 7-day washing period.
as §3

[5] = both sexes, iv, single i.v. dose of TRQI 0.5 mL/kg
[6] = both sexes, single oral dose of TRQC 0.09 g/kg
[7] = n = 3, high QC: nominal 200 ng/mL baicalin, 1000 ursodeoxycholic acid, 100 chenodeoxycholic acid and chlorogenic acid
[8] = n = 3, low QC: nominal 4 ng/mL baicalin, 20 ursodeoxycholic acid, 2 chenodeoxycholic acid and chlorogenic acid
[9] = n = 3, middle QC: nominal 20 ng/mL baicalin, 100 ursodeoxycholic acid, 10 chenodeoxycholic acid and chlorogenic acid
[10] = both sexes, iv, TRQI 0.5 mL/kg once per day for 7 days, mean
[11] = both sexes, po, TRQC 0.09 g/kg once per day for 7 days, mean

time at which oral absorption reached a peak ([1]; TRQC, oral, dogs): ~5 h
AUC(0-t) ([1]; both sexes, iv, 0.5 mL/kg, single TRQI 0.5 mL/kg, Mean): 359 ng·h/mL
Cmax [1, 5]: 120 ng/mL
Tmax [1, 5]: 1.07 h
half-life [1, 5]: 5.67 h
AUC(0-t) ([1]; both sexes, po, 0.09 g/kg, single TRQCs 0.09 g/kg, Mean): 553 ng·h/mL
Cmax [1, 6]: 99.8 ng/mL
Tmax [1, 6]: 7.53 h
half-life [1, 6]: 5.93 h
AUC(0-t) ([1]; female, iv, 0.5 mL/kg, single TRQI 0.5 mL/kg, beagle No 4): 89 ng·h/mL
AUC(0-t) ([1]; female, iv, 0.5 mL/kg, single TRQI 0.5 mL/kg, beagle No 5): 137 ng·h/mL
AUC(0-t) ([1]; female, iv, 0.5 mL/kg, single TRQI 0.5 mL/kg, beagle No 6): 95 ng·h/mL
AUC(0-t) ([1]; female, po, 0.09 g/kg, single TRQCs 0.09 g/kg, beagle No 4): 1330 ng·h/mL
AUC(0-t) ([1]; female, po, 0.09 g/kg, single TRQCs 0.09 g/kg, beagle No 5): 126 ng·h/mL
AUC(0-t) ([1]; female, po, 0.09 g/kg, single TRQCs 0.09 g/kg, beagle No 6): 1080 ng·h/mL
AUC(0-t) ([1]; male, iv, 0.5 mL/kg, single TRQI 0.5 mL/kg, beagle No 1): 1490 ng·h/mL
AUC(0-t) ([1]; male, iv, 0.5 mL/kg, single TRQI 0.5 mL/kg, beagle No 2): 108 ng·h/mL
AUC(0-t) ([1]; male, iv, 0.5 mL/kg, single TRQI 0.5 mL/kg, beagle No 3): 238 ng·h/mL
AUC(0-t) ([1]; male, po, 0.09 g/kg, single TRQCs 0.09 g/kg, beagle No 1): 104 ng·h/mL
AUC(0-t) ([1]; male, po, 0.09 g/kg, single TRQCs 0.09 g/kg, beagle No 2): 257 ng·h/mL
AUC(0-t) ([1]; male, po, 0.09 g/kg, single TRQCs 0.09 g/kg, beagle No 3): 421 ng·h/mL
Freeze-thaw stability (3 cycles) Mean ± S.D. concentration [3, 7]: 95.70 ± 4.66 ng/mL
Long-term stability (30 days at – 80 °C) Mean ± S.D. concentration [3, 7]: 101.23 ± 5.13 ng/mL
Short-term stability (6 h at room temperature) Mean ± S.D concentration [3, 7]: 101.57 ± 0.54 ng/mL
Freeze-thaw stability (3 cycles) Mean ± S.D. concentration [3, 8]: 1.97 ± 0.17 ng/mL
Long-term stability (30 days at – 80 °C) Mean ± S.D. concentration [3, 8]: 1.92 ± 0.22 ng/mL
Short-term stability (6 h at room temperature) Mean ± S.D concentration [3, 8]: 1.77 ± 0.06 ng/mL
Freeze-thaw stability (3 cycles) Mean ± S.D. concentration [3, 9]: 9.37 ± 0.95 ng/mL
Long-term stability (30 days at – 80 °C) Mean ± S.D. concentration [3, 9]: 10.10 ± 0.36 ng/mL
Short-term stability (6 h at room temperature) Mean ± S.D concentration [3, 9]: 9.79 ± 0.78 ng/mL
AUC(0-inf) ([4]; both sexes, iv, 0.5 mL/kg, TRQI 0.5 mL/kg for 7 days, Mean): 5030 ng·h/mL
AUC(0-t) ([4]; both sexes, iv, 0.5 mL/kg, TRQI 0.5 mL/kg for 7 days, Mean, read-out: AUC0–24 h): 4070 ng·h/mL
Cmax at 7 days [4, 10]: 968 ng/mL
half-life at 7 days [4, 10]: 6.25 h
AUC(0-inf) ([4]; both sexes, po, 0.09 g/kg, TRQC 0.09 g/kg for 7 days, Mean): 3710 ng·h/mL
AUC(0-t) ([4]; both sexes, po, 0.09 g/kg, TRQC 0.09 g/kg for 7 days, Mean, read-out: AUC0–24 h): 3430 ng·h/mL
Cmax at 7 days [4, 11]: 521 ng/mL
Tmax at 7 days [4, 11]: 4.72 h
half-life at 7 days [4, 11]: 13.7 h
AUC(0-inf) ([4]; female, iv, 0.5 mL/kg, TRQI 0.5 mL/kg for 7 days, beagle No. 4): 6190 ng·h/mL
AUC(0-t) ([4]; female, iv, 0.5 mL/kg, TRQI 0.5 mL/kg for 7 days, beagle No. 4, read-out: AUC0–24 h): 669 ng·h/mL
AUC(0-inf) ([4]; female, iv, 0.5 mL/kg, TRQI 0.5 mL/kg for 7 days, beagle No. 5): 399 ng·h/mL
AUC(0-t) ([4]; female, iv, 0.5 mL/kg, TRQI 0.5 mL/kg for 7 days, beagle No. 5, read-out: AUC0–24 h): 234 ng·h/mL
AUC(0-inf) ([4]; female, iv, 0.5 mL/kg, TRQI 0.5 mL/kg for 7 days, beagle No. 6): 138 ng·h/mL
AUC(0-t) ([4]; female, iv, 0.5 mL/kg, TRQI 0.5 mL/kg for 7 days, beagle No. 6, read-out: AUC0–24 h): 138 ng·h/mL
AUC(0-inf) ([4]; female, po, 0.09 g/kg, TRQC 0.09 g/kg for 7 days, beagle No. 4): 16800 ng·h/mL
AUC(0-t) ([4]; female, po, 0.09 g/kg, TRQC 0.09 g/kg for 7 days, beagle No. 4, read-out: AUC0–24 h): 16700 ng·h/mL
AUC(0-inf) ([4]; female, po, 0.09 g/kg, TRQC 0.09 g/kg for 7 days, beagle No. 5): 1960 ng·h/mL
AUC(0-t) ([4]; female, po, 0.09 g/kg, TRQC 0.09 g/kg for 7 days, beagle No. 5, read-out: AUC0–24 h): 500 ng·h/mL
AUC(0-inf) ([4]; female, po, 0.09 g/kg, TRQC 0.09 g/kg for 7 days, beagle No. 6): 761 ng·h/mL
AUC(0-t) ([4]; female, po, 0.09 g/kg, TRQC 0.09 g/kg for 7 days, beagle No. 6, read-out: AUC0–24 h): 760 ng·h/mL
AUC(0-inf) ([4]; male, iv, 0.5 mL/kg, TRQI 0.5 mL/kg for 7 days, beagle No. 1): 20000 ng·h/mL
AUC(0-t) ([4]; male, iv, 0.5 mL/kg, TRQI 0.5 mL/kg for 7 days, beagle No. 1, read-out: AUC0–24 h): 20000 ng·h/mL
AUC(0-inf) ([4]; male, iv, 0.5 mL/kg, TRQI 0.5 mL/kg for 7 days, beagle No. 2): 183 ng·h/mL
AUC(0-t) ([4]; male, iv, 0.5 mL/kg, TRQI 0.5 mL/kg for 7 days, beagle No. 2, read-out: AUC0–24 h): 121 ng·h/mL
AUC(0-inf) ([4]; male, iv, 0.5 mL/kg, TRQI 0.5 mL/kg for 7 days, beagle No. 3): 3250 ng·h/mL
AUC(0-t) ([4]; male, iv, 0.5 mL/kg, TRQI 0.5 mL/kg for 7 days, beagle No. 3, read-out: AUC0–24 h): 3240 ng·h/mL
AUC(0-inf) ([4]; male, po, 0.09 g/kg, TRQC 0.09 g/kg for 7 days, beagle No. 1): 231 ng·h/mL
AUC(0-t) ([4]; male, po, 0.09 g/kg, TRQC 0.09 g/kg for 7 days, beagle No. 1, read-out: AUC0–24 h): 195 ng·h/mL
AUC(0-inf) ([4]; male, po, 0.09 g/kg, TRQC 0.09 g/kg for 7 days, beagle No. 2): 1930 ng·h/mL
AUC(0-t) ([4]; male, po, 0.09 g/kg, TRQC 0.09 g/kg for 7 days, beagle No. 2, read-out: AUC0–24 h): 1900 ng·h/mL
AUC(0-inf) ([4]; male, po, 0.09 g/kg, TRQC 0.09 g/kg for 7 days, beagle No. 3): 538 ng·h/mL
AUC(0-t) ([4]; male, po, 0.09 g/kg, TRQC 0.09 g/kg for 7 days, beagle No. 3, read-out: AUC0–24 h): 493 ng·h/mL
SMILES: C[C@H](CCC(=O)O)[C@H]1CC[C@H]2[C@@H]3[C@H](O)C[C@@H]4C[C@H](O)CC[C@]4(C)[C@H]3CC[C@]12C [Chenodeoxycholic acid, chenodeoxycholic acid]
t1/2 ([2]; Hu's study): 1.83 h
t1/2 ([2]; another study): 0.55 h
